The values below come from patent US11655235B2, “Pyrrolidine and piperidine compounds” (YUHAN CORPORATION, priority 2019, dated 2023).

Type in all cases: biochemical
One test concerns the target T1, recombinant human PREP (Homo sapiens, UniProt P48147).
T1 construct: purchased R&D System
T1 sequence (P48147 1-710): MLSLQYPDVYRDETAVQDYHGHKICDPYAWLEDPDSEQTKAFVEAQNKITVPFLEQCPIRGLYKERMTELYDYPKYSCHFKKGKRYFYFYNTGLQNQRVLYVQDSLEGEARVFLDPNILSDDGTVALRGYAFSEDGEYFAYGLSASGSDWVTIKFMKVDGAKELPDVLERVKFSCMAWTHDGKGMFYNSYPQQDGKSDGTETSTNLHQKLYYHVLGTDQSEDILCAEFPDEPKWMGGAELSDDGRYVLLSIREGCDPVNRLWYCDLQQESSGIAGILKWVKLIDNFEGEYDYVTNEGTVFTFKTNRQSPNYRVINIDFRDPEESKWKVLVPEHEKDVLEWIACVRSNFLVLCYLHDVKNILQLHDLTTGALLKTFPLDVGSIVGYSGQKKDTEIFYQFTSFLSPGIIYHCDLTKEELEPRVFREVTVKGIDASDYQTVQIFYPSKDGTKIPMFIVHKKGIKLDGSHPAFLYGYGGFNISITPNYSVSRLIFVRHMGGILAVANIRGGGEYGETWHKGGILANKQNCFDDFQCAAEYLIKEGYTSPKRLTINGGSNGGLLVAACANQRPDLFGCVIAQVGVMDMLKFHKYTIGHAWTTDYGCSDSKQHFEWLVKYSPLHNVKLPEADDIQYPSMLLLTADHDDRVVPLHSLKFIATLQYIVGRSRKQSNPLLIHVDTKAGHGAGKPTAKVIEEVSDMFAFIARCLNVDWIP
In words: PREP inhibition, fluorogenic substrate Z-Gly-Pro-AMC. The settings on record: Inhibitory Activity (IC50, nM) PREP, recombinant human PREP. The method, boiled down:
(§1)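 Enzyme per reaction: 50 ng DPP9, 20 ng DPP8, 10 ng each DPP7 and PREP. Compounds were serially diluted (8 points, up to 0.5% DMSO) and incubated at 25 °C.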

The target of the next test is T2, Recombinant human FAP (Homo sapiens, UniProt Q12884).
T2 construct: purchased R&D systems
T2 sequence (Q12884 1-760): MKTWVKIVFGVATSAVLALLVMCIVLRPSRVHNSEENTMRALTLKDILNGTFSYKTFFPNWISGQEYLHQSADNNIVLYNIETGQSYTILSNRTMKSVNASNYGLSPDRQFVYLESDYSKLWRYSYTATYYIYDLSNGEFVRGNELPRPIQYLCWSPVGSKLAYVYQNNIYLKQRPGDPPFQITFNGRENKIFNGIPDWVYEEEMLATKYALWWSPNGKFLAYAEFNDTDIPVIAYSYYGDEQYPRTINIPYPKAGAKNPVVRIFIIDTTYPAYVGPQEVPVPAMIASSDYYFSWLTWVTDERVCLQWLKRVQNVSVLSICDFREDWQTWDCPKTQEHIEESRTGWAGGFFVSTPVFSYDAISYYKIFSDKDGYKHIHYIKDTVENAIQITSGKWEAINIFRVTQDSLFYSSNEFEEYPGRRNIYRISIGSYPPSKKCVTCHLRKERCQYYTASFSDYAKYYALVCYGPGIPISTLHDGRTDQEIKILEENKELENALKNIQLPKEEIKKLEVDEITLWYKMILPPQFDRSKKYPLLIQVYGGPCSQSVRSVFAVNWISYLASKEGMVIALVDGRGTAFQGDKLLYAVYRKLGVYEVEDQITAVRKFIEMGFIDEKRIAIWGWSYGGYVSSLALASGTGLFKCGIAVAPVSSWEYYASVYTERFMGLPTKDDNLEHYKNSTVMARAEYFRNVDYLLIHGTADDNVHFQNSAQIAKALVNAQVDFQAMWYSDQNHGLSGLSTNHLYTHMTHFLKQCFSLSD
Kind of test: FAP inhibition, fluorogenic substrate Z-Gly-Pro-AMC. Particulars: recombinant human FAP, substrate Z-Gly-Pro-AMC. An outline of the steps:
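Recombinant human FAP, 10 ng per reaction, in 50 mM Tris pH 7.5 with 1 M NaCl and 1 mg/ml BSA at 25° C; substrate Z-Gly-Pro-AMC, ≤0.1% DMSO. AMC fluorescence read at ex 380/em 460 nm; % signal-rate decrease vs no-inhibitor control, 8-point curves fitted to a four-parameter logistic for IC50.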

A further test has as its target DPP4 (Homo sapiens, UniProt P27487). In words: DPP4 inhibition, fluorogenic substrate H-Gly-Pro-AMC. The settings on record: recombinant human DPP4. Also noted: purchased R&D Systems.
Another test addresses T3, recombinant human DPP8 (Homo sapiens, UniProt Q6V1X1).
T3 construct: purchased PBS Bioscience
Kind of test: DPP8 inhibition, fluorogenic substrate Z-Ala-Pro-AMC. Particulars: recombinant human DPP8. An outline of the steps: as §1

The target in a further test is T4, recombinant human DPP9 (Homo sapiens, UniProt Q86TI2).
T4 construct: purchased R&D Systems
T4 sequence (Q86TI2 whole entry): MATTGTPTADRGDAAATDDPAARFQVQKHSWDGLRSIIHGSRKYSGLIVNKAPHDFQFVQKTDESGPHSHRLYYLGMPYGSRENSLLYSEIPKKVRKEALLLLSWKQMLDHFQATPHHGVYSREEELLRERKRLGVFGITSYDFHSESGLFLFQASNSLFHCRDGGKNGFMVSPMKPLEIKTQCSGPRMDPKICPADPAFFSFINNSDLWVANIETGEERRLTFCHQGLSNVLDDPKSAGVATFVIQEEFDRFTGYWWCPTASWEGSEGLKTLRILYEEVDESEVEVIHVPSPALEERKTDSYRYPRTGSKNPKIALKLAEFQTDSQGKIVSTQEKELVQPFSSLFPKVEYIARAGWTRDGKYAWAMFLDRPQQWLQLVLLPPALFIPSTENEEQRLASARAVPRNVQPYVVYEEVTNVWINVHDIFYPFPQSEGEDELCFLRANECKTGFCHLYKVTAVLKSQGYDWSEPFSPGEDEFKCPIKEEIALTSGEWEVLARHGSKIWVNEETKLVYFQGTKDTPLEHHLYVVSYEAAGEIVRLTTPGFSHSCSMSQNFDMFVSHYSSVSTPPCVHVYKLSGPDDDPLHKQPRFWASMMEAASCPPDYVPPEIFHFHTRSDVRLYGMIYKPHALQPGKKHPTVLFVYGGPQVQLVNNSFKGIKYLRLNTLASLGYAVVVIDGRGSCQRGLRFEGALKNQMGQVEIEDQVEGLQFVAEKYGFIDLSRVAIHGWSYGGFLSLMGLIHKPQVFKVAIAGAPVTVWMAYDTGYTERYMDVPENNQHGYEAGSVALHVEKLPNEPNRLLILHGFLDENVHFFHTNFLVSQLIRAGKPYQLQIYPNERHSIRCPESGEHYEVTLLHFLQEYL
Kind of test: DPP9 inhibition, fluorogenic substrate H-Gly-Pro-AMC. Particulars: recombinant human DPP9. The method, boiled down:
as §1

For another test, the target named is T5, recombinant human DPP7 (Homo sapiens, UniProt Q9UHL4).
T5 construct: purchased R&D Systems
Kind of test: DPP7 inhibition, fluorogenic substrate Lys-Pro-AMC. The settings on record: recombinant human DPP7. An outline of the steps:
as §1

Broadly, the IC50 is the midpoint of a concentration-inhibition curve.

T3 sequence (Q6V1X1 whole entry): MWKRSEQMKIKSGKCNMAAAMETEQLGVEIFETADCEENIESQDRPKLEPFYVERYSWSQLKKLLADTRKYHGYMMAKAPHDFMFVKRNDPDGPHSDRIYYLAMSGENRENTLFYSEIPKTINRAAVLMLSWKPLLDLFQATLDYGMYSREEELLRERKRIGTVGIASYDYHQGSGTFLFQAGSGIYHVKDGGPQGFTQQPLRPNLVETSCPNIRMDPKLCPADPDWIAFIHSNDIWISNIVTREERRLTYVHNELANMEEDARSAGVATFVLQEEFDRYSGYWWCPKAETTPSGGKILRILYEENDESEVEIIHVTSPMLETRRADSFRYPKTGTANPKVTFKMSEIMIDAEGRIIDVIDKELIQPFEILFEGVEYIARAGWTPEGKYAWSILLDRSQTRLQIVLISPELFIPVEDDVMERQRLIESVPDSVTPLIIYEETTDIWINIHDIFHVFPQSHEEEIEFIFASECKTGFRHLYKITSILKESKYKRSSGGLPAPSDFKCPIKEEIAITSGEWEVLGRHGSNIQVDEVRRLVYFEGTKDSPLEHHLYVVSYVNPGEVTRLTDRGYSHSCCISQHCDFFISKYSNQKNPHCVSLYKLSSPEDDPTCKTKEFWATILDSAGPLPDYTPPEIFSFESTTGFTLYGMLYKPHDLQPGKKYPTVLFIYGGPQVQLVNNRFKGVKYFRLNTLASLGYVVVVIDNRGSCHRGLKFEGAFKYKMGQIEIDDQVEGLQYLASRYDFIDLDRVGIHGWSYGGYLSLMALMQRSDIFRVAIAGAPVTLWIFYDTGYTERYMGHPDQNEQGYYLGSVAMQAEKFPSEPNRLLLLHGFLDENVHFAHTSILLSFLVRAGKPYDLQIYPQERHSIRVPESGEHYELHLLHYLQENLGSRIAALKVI
DPP4, sequence (P27487 whole entry): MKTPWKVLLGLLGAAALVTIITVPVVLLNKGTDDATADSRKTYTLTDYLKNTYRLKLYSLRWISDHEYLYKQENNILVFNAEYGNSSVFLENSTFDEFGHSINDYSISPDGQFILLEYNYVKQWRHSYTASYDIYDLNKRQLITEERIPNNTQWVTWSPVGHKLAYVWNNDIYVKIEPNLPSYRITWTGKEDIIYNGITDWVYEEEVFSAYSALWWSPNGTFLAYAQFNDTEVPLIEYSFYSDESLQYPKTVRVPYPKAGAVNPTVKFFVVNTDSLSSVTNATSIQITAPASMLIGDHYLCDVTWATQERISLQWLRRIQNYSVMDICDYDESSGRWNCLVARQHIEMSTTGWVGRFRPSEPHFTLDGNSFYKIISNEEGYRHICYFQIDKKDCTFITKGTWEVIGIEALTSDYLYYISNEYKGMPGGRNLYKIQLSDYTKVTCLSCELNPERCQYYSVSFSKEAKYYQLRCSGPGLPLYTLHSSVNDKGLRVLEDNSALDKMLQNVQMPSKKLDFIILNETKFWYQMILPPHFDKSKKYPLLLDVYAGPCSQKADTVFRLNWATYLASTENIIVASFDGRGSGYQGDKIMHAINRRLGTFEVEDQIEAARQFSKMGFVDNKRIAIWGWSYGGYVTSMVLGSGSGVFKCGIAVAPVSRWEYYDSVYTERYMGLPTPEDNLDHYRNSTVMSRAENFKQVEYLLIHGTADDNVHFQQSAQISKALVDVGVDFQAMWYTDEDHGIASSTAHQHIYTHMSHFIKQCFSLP

For `N#C[C@@H]1C[C@H](F)CN1C(=O)CN1CCC(Nc2cncc3ccccc23)CC1` [Example 339, (2S,4S)-4-fluoro-1-[2-[4-(4-isoquinolylamino)-1-piperidyl]acetyl]pyrrolidine-2-carbonitrile], the IC50 on recombinant human PREP was 3590 nM; on Recombinant human FAP it was 0.0114 µM; on DPP4, 8.79 µM; on recombinant human DPP8, above 10 µM; at recombinant human DPP9 it was above 30 µM; on recombinant human DPP7, 0.555 µM.

Take `N#C[C@@H]1C[C@H](F)CN1C(=O)CN1CCC(Nc2cccc3cnccc23)CC1` [Example 340, (2S,4S)-4-fluoro-1-[2-[4-(5-isoquinolylamino)-1-piperidyl]acetyl]pyrrolidine-2-carbonitrile]: the IC50 at recombinant human PREP was 7850 nM; at Recombinant human FAP, 0.0051 µM; at DPP4, 6.5 µM; at recombinant human DPP8 it was 2.4 µM; on recombinant human DPP9 it was 5.31 µM; at recombinant human DPP7, 0.523 µM.

Regarding `N#C[C@@H]1C[C@H](F)CN1C(=O)CN1CCC(Nc2cccc3ccncc23)CC1` [Example 342, (2S,4S)-4-fluoro-1-[2-[4-(8-isoquinolylamino)-1-piperidyl]acetyl]pyrrolidine-2-carbonitrile], the IC50 worked out at 6650 nM at recombinant human PREP; 0.014 µM on Recombinant human FAP; 3.26 µM on DPP4; 39.6 µM on recombinant human DPP8; 5.33 µM on recombinant human DPP9; 0.316 µM on recombinant human DPP7.

As for `N#C[C@@H]1C[C@H](F)CN1C(=O)CN1CCC(Nc2ccnc3c(C(F)(F)F)cccc23)CC1` [Example 346, (2S,4S)-4-fluoro-1-[2-[4-[[8-(trifluoromethyl)-4-quinolyl]amino]-1-piperidyl]acetyl]pyrrolidine-2-carbonitrile], the IC50 on recombinant human PREP was determined as 637 nM; at Recombinant human FAP it was 0.0027 µM; on DPP4 it was 2.35 µM; on recombinant human DPP8 it was 5.96 µM; on recombinant human DPP9, 3.26 µM; at recombinant human DPP7, 0.339 µM.

For `CN(c1cncc2ccoc12)C1CCN(CC(=O)N2C[C@@H](F)C[C@H]2C#N)CC1` [Example 350, (2S,4S)-4-fluoro-1-[2-[4-[furo[3,2-c]pyridin-7-yl(methyl)amino]-1-piperidyl]acetyl]pyrrolidine-2-carbonitrile], the IC50 at recombinant human PREP was found to be 625 nM; at Recombinant human FAP, 0.0082 µM; at DPP4 it was 7.9 µM; on recombinant human DPP8, 17.5 µM; at recombinant human DPP9, 27.5 µM; on recombinant human DPP7, 9.08 µM.

As for `N#C[C@@H]1C[C@H](F)CN1C(=O)CN1CCC(Nc2cccc3c(Cl)nccc23)CC1` [Example 351, (2S,4S)-1-[2-[4-[(1-chloro-5-isoquinolyl)amino]-1-piperidyl]acetyl]-4-fluoro-pyrrolidine-2-carbonitrile], the IC50 on recombinant human PREP was determined as 3280 nM; at Recombinant human FAP it was 0.0034 µM; on DPP4, 6.73 µM; on recombinant human DPP8, 2.81 µM; on recombinant human DPP9, 4.53 µM; at recombinant human DPP7 it was 0.842 µM.

Take `N#C[C@@H]1C[C@H](F)CN1C(=O)CN1CCC(Nc2ccc(Cl)c3cnccc23)CC1` [Example 353, (2S,4S)-1-[2-[4-[(8-chloro-5-isoquinolyl)amino]-1-piperidyl]acetyl]-4-fluoro-pyrrolidine-2-carbonitrile]: the IC50 on recombinant human PREP was 3570 nM; on Recombinant human FAP, 0.0045 µM; at DPP4, 5.89 µM; on recombinant human DPP8 it was above 10 µM; on recombinant human DPP9, 2.88 µM; at recombinant human DPP7, 1.06 µM.

As to `Cc1cncc2cccc(NC3CCN(CC(=O)N4C[C@@H](F)C[C@H]4C#N)CC3)c12` [Example 354, (2S,4S)-4-fluoro-1-[2-[4-[(4-methyl-5-isoquinolyl)amino]-1-piperidyl]acetyl]pyrrolidine-2-carbonitrile], the IC50 stood at 2820 nM on recombinant human PREP; 0.0089 µM at Recombinant human FAP; 2.08 µM at DPP4; 1.78 µM at recombinant human DPP8; 4.94 µM at recombinant human DPP9; 0.428 µM on recombinant human DPP7.

Take `N#C[C@@H]1C[C@H](F)CN1C(=O)CN1CCC(Nc2ccc([N+](=O)[O-])c3cnccc23)CC1` [Example 356, (2S,4S)-4-fluoro-1-[2-[4-[(8-nitro-5-isoquinolyl)amino]-1-piperidyl]acetyl]pyrrolidine-2-carbonitrile]: the IC50 is 4980 nM at recombinant human PREP; 0.0037 µM at Recombinant human FAP; 4.02 µM at DPP4; 0.953 µM at recombinant human DPP8; 0.741 µM on recombinant human DPP9; 2.05 µM at recombinant human DPP7.

For `N#C[C@@H]1C[C@H](F)CN1C(=O)CN1CCC(Nc2ccc(F)c3cnccc23)CC1` [Example 357, (2S,4S)-4-fluoro-1-[2-[4-[(8-fluoro-5-isoquinolyl)amino]-1-piperidyl]acetyl]pyrrolidine-2-carbonitrile], the IC50 at recombinant human PREP turned out to be 4830 nM; at Recombinant human FAP, 0.0038 µM; at DPP4, 4.71 µM; on recombinant human DPP8 it was 3.6 µM; at recombinant human DPP9, 2.8 µM; on recombinant human DPP7, 1.64 µM.

As for `COc1cc2nc(Cl)nc(NC3CCN(CC(=O)N4CCC[C@H]4C#N)CC3)c2cc1OC` [Example 358, (2S)-1-[2-[4-[(2-chloro-6,7-dimethoxy-quinazolin-4-yl)amino]-1-piperidyl]acetyl]pyrrolidine-2-carbonitrile], the IC50 at recombinant human PREP is 11800 nM; at Recombinant human FAP it was 0.0037 µM; on DPP4 it was above 10 µM; at recombinant human DPP8, 30 µM; on recombinant human DPP9, 64.6 µM; at recombinant human DPP7 it was 1.44 µM.

Take `Cc1cccc2c(NC3CCN(CC(=O)N4CCC[C@H]4C#N)CC3)nc(Cl)nc12` [Example 359, (2S)-1-[2-[4-[(2-chloro-8-methyl-quinazolin-4-yl)amino]-1-piperidyl]acetyl]pyrrolidine-2-carbonitrile]: the IC50 at recombinant human PREP was 6000 nM; at Recombinant human FAP it was 0.0023 µM; at DPP4, above 10 µM; on recombinant human DPP8, 8.22 µM; on recombinant human DPP9, 31.3 µM; on recombinant human DPP7, 0.971 µM.

On to `N#C[C@@H]1C[C@H](F)CN1C(=O)CN1CCC(Oc2ccnc3ccc(C(F)(F)F)cc23)CC1` [Example 411, (2S,4S)-4-fluoro-1-[2-[4-[[6-(trifluoromethyl)-4-quinolyl]oxy]-1-piperidyl]acetyl]pyrrolidine-2-carbonitrile], for which the IC50 on recombinant human PREP was 10600 nM; on Recombinant human FAP, 0.0025 µM; at DPP4, above 10 µM; at recombinant human DPP8, 9.92 µM; at recombinant human DPP9, 29.4 µM; at recombinant human DPP7 it was 3.15 µM.

On to `N#C[C@@H]1C[C@H](F)CN1C(=O)CN1CCC(Oc2cc(C(F)(F)F)nc3ccccc23)CC1` [Example 412, (2S,4S)-4-fluoro-1-[2-[4-[[2-(trifluoromethyl)-4-quinolyl]oxy]-1-piperidyl]acetyl]pyrrolidine-2-carbonitrile], for which the IC50 on recombinant human PREP is 1280 nM; on Recombinant human FAP, 0.0059 µM; at DPP4, above 10 µM; at recombinant human DPP8 it was 12 µM; at recombinant human DPP9, 69.8 µM; on recombinant human DPP7 it was 10.7 µM.
